“And” between values parts separate entries of the source, which are not always exact repeats. Equal entries are not always repeated. Toxic doses and inconclusive results are not listed.
System: P388 leukemia ip, CD2F1 mice, survival T/C
Assay: NCI In Vivo Anticancer Drug Screen. Data for tumor model P388 Leukemia (intraperitoneal) in CD2F1 (CDF1) mice
Conditions: endpoint: median survival time, higher = longer survival
Method in brief: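 Mice carrying the transplanted tumor received test compound or vehicle. Survival was recorded in each group, and the value is the treated-group measurement divided by that of the vehicle-treated control group.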

[1] = dose: 12.5 mg/kg/injection, schedule: Q01DX009 (ip), vehicle: saline with Tween-80
[2] = dose: 50.0 mg/kg/injection, schedule: Q01DX009 (ip), vehicle: saline with Tween-80
[3] = dose: 100.0 mg/kg/injection, schedule: Q01DX009 (ip), vehicle: saline with Tween-80
[4] = dose: 200.0 mg/kg/injection, schedule: Q01DX009 (ip), vehicle: saline with Tween-80
[5] = dose: 12.5 mg/kg/injection, schedule: Q01DX009 (ip), vehicle: saline
[6] = dose: 50.0 mg/kg/injection, schedule: Q01DX009 (ip), vehicle: saline
[7] = dose: 100.0 mg/kg/injection, schedule: Q01DX009 (ip), vehicle: saline
[8] = dose: 50.0 mg/kg/injection, schedule: Q01DX005 (ip), vehicle: saline with Tween-80
[9] = dose: 100.0 mg/kg/injection, schedule: Q01DX005 (ip), vehicle: saline with Tween-80
[10] = dose: 200.0 mg/kg/injection, schedule: Q01DX005 (ip), vehicle: saline with Tween-80
[11] = dose: 100.0 mg/kg/injection, schedule: Q04DX003 (ip), vehicle: saline
[12] = dose: 200.0 mg/kg/injection, schedule: Q04DX003 (ip), vehicle: saline
[13] = dose: 400.0 mg/kg/injection, schedule: Q04DX003 (ip), vehicle: saline
[14] = dose: 25.0 mg/kg/injection, schedule: Q04DX003 (ip), vehicle: Klucel (hydroxypropylcellulose) (HPC)
[15] = dose: 50.0 mg/kg/injection, schedule: Q01DX005 (ip), vehicle: Klucel (hydroxypropylcellulose) (HPC)
[16] = dose: 50.0 mg/kg/injection, schedule: Q01DX009 (ip), vehicle: Klucel (hydroxypropylcellulose) (HPC)
[17] = dose: 100.0 mg/kg/injection, schedule: Q01DX009 (ip), vehicle: Klucel (hydroxypropylcellulose) (HPC)
[18] = dose: 200.0 mg/kg/injection, schedule: Q01DX009 (ip), vehicle: Klucel (hydroxypropylcellulose) (HPC)
[19] = dose: 100.0 mg/kg/injection, schedule: Q01DX005 (ip), vehicle: Klucel (hydroxypropylcellulose) (HPC)
[20] = dose: 200.0 mg/kg/injection, schedule: Q01DX005 (ip), vehicle: Klucel (hydroxypropylcellulose) (HPC)
[21] = dose: 25.0 mg/kg/injection, schedule: Q01DX009 (ip), vehicle: saline with Tween-80
[22] = dose: 60.0 mg/kg/injection, schedule: Q01DX005 (ip), vehicle: saline with Tween-80
[23] = dose: 120.0 mg/kg/injection, schedule: Q01DX005 (ip), vehicle: saline with Tween-80
[24] = dose: 240.0 mg/kg/injection, schedule: Q01DX005 (ip), vehicle: saline with Tween-80

`CC(C)=CCCC(C)(OC1OC(COC2OC(CO)C(O)C2O)C(O)C(O)C1O)C1CCC2(C)C1C(O)CC1C3(C)CCC(OC4OC(CO)C(O)C(O)C4OC4OC(CO)C(O)C(O)C4O)C(C)(C)C3CCC12C` (stereo unspecified) was tested, and the T/C (dose: 2.0 mg/kg/injection, schedule: Q01DX009 (ip), vehicle: Klucel (hydroxypropylcellulose) (HPC)) was 88 % of control, the T/C (dose: 4.0 mg/kg/injection, schedule: Q01DX009 (ip), vehicle: Klucel (hydroxypropylcellulose) (HPC)) was 95 % of control and the T/C (dose: 8.0 mg/kg/injection, schedule: Q01DX009 (ip), vehicle: Klucel (hydroxypropylcellulose) (HPC)) was 104 % of control. The T/C (dose: 16.0 mg/kg/injection, schedule: Q01DX009 (ip), vehicle: Klucel (hydroxypropylcellulose) (HPC)) was 114 % of control and the T/C (dose: 32.0 mg/kg/injection, schedule: Q01DX009 (ip), vehicle: Klucel (hydroxypropylcellulose) (HPC)) was 98 % of control.

`CCN(CC)CCOC1C=C(C)C2CC1C2(C)C` (stereo unspecified) was tested, and the T/C (dose: 50.0 mg/kg/injection, schedule: Q01DX005 (ip), vehicle: saline) was 101 % of control and the T/C (dose: 100.0 mg/kg/injection, schedule: Q01DX005 (ip), vehicle: saline) was 101 % of control.

`COc1cccc(/C=N/NC(=O)C2CCN(C(=S)NC3CC4C=CC3C4)CC2)c1O` (stereo unspecified) was tested, and the T/C [1] was 101 % of control, the T/C [2] was 99 % of control and 97 % of control and the T/C [3] was 103 % of control. The T/C [4] was 103 % of control.

With `O=NN1CCNC1=O` the T/C (dose: 1.5 mg/kg/injection, schedule: Q04DX003 (ip), vehicle: saline) was 113 % of control, the T/C (dose: 6.25 mg/kg/injection, schedule: Q01DX009 (ip), vehicle: saline) was 168 % of control and the T/C [5] was 245 % of control. For the same compound, the T/C (dose: 12.5 mg/kg/injection, schedule: Q04DX003 (ip), vehicle: saline) was 163 % of control, the T/C (dose: 16.5 mg/kg/injection, schedule: Q04DX003 (ip), vehicle: saline) was 187 % of control and the T/C (dose: 25.0 mg/kg/injection, schedule: Q04DX003 (ip), vehicle: saline) was 187 % of control and 213 % of control.

For `OCC1OC2OC3C(CO)OC(OC4C(CO)OC(OC5C(CO)OC(OC6C(CO)OC(OC7C(CO)OC(OC1C(O)C2O)C(O)C7O)C(O)C6O)C(O)C5O)C(O)C4O)C(O)C3O` (stereo unspecified), the T/C [6] was 94 % of control, the T/C [7] was 89 % of control and the T/C (dose: 200.0 mg/kg/injection, schedule: Q01DX009 (ip), vehicle: saline) was 96 % of control.

With `O=C1CSC(c2ccc(Cl)c(Cl)c2)N1c1nncs1` (stereo unspecified) the T/C [8] was 103 % of control, the T/C [9] was 93 % of control and the T/C [10] was 99 % of control.

For `Cc1ncc([N+](=O)[O-])n1CCSC(N)=O`, the T/C (dose: 50.0 mg/kg/injection, schedule: Q04DX003 (ip), vehicle: saline) was 102 % of control and 105 % of control, the T/C [11] was 102 % of control and 114 % of control and the T/C [12] was 100 % of control and 114 % of control. The T/C [13] was 100 % of control and 120 % of control.

With `Brc1ccc(CC[P+](c2ccccc2)(c2ccccc2)c2ccccc2)cc1` the T/C [14] was 109 % of control, the T/C (dose: 50.0 mg/kg/injection, schedule: Q04DX003 (ip), vehicle: Klucel (hydroxypropylcellulose) (HPC)) was 101 % of control and the T/C (dose: 100.0 mg/kg/injection, schedule: Q04DX003 (ip), vehicle: Klucel (hydroxypropylcellulose) (HPC)) was 100 % of control and 105 % of control.

For `CCCCC[CH2][GeH]([CH2]CCCCC)[O][GeH]([CH2]CCCCC)[CH2]CCCCC`, the T/C [5] was 100 % of control and 97 % of control, the T/C (dose: 25.0 mg/kg/injection, schedule: Q01DX009 (ip), vehicle: saline) was 104 % of control and 90 % of control and the T/C [6] was 100 % of control and 101 % of control and 106 % of control. The T/C [7] was 120 % of control and 97 % of control.

`COc1ccc2c(c1)C(c1cccc3ccccc13)OC2=O` (stereo unspecified) was tested, and the T/C (dose: 6.25 mg/kg/injection, schedule: Q01DX005 (ip), vehicle: Klucel (hydroxypropylcellulose) (HPC)) was 103 % of control, the T/C (dose: 12.5 mg/kg/injection, schedule: Q01DX005 (ip), vehicle: Klucel (hydroxypropylcellulose) (HPC)) was 92 % of control and the T/C (dose: 25.0 mg/kg/injection, schedule: Q01DX005 (ip), vehicle: Klucel (hydroxypropylcellulose) (HPC)) was 87 % of control. The T/C [15] was 90 % of control.

`CCO/C=N/c1c(C#N)cnn1C` was tested, and the T/C [16] was 100 % of control, the T/C [17] was 98 % of control and the T/C [18] was 106 % of control. For the same compound, the T/C (dose: 400.0 mg/kg/injection, schedule: Q01DX009 (ip), vehicle: Klucel (hydroxypropylcellulose) (HPC)) was 103 % of control.

For `CCOC(=O)C1=C(N)OC(c2ccccc2)=C(C#N)C1c1ccccc1Cl` (stereo unspecified), the T/C [15] was 101 % of control, the T/C [19] was 113 % of control and the T/C [20] was 97 % of control.

`CCN(CC)CCNC(=O)c1cc(Cl)c(N)cc1OC` was tested, and the T/C (dose: 3.12 mg/kg/injection, schedule: Q01DX005 (ip), vehicle: water) was 100 % of control and 105 % of control, the T/C (dose: 6.25 mg/kg/injection, schedule: Q01DX005 (ip), vehicle: water) was 108 % of control and 95 % of control and the T/C (dose: 12.5 mg/kg/injection, schedule: Q01DX005 (ip), vehicle: water) was 104 % of control and 105 % of control. For the same compound, the T/C (dose: 25.0 mg/kg/injection, schedule: Q01DX005 (ip), vehicle: water) was 104 % of control and 107 % of control, the T/C (dose: 50.0 mg/kg/injection, schedule: Q01DX005 (ip), vehicle: water) was 103 % of control and 111 % of control and 122 % of control and the T/C (dose: 100.0 mg/kg/injection, schedule: Q01DX005 (ip), vehicle: water) was 100 % of control and 106 % of control and 117 % of control.

`Nc1nc[nH]c(=O)c1NC(=O)c1cccc([N+](=O)[O-])c1` was tested, and the T/C [1] was 101 % of control, the T/C [21] was 100 % of control and the T/C [2] was 96 % of control. The T/C [3] was 99 % of control.

For `CN(C)c1nc(N(C)C)nc(N(C)C)n1`, the T/C (dose: 6.25 mg/kg/injection, schedule: Q01DX009 (ip), vehicle: saline with Tween-80) was 110 % of control, the T/C [1] was 105 % of control and 108 % of control and 96 % of control and the T/C (dose: 20.0 mg/kg/injection, schedule: Q01DX009 (ip), vehicle: saline with Tween-80) was 108 % of control. The T/C (dose: 25.0 mg/kg/injection, schedule: Q01DX001 (ip), vehicle: Klucel (hydroxypropylcellulose) (HPC)) was 103 % of control and 104 % of control, the T/C [21] was 98 % of control and 103 % of control and 107 % of control and the T/C (dose: 25.0 mg/kg/injection, schedule: Q04DX002 (ip), vehicle: Klucel (hydroxypropylcellulose) (HPC)) was 100 % of control and 112 % of control. The T/C [14] was 110 % of control and 115 % of control, the T/C (dose: 40.0 mg/kg/injection, schedule: Q01DX009 (ip), vehicle: saline with Tween-80) was 109 % of control and the T/C [2] was 104 % of control and 109 % of control (2×). The T/C (dose: 75.0 mg/kg/injection, schedule: Q01DX005 (ip), vehicle: Klucel (hydroxypropylcellulose) (HPC)) was 105 % of control, the T/C (dose: 80.0 mg/kg/injection, schedule: Q01DX009 (ip), vehicle: saline with Tween-80) was 111 % of control and the T/C [3] was 114 % of control and 119 % of control and 97 % of control. The T/C (dose: 150.0 mg/kg/injection, schedule: Q01DX005 (ip), vehicle: Klucel (hydroxypropylcellulose) (HPC)) was 105 % of control, the T/C (dose: 160.0 mg/kg/injection, schedule: Q01DX009 (ip), vehicle: saline with Tween-80) was 118 % of control and the T/C [4] was 108 % of control.

`COc1ccc(C(=O)/C=N/O)cc1` was tested, and the T/C (dose: 25.0 mg/kg/injection, schedule: Q04DX003 (ip), vehicle: saline with Tween-80) was 95 % of control, the T/C (dose: 50.0 mg/kg/injection, schedule: Q04DX003 (ip), vehicle: saline with Tween-80) was 95 % of control and the T/C (dose: 100.0 mg/kg/injection, schedule: Q04DX003 (ip), vehicle: saline with Tween-80) was 86 % of control.

`Cc1nn(-c2ccccc2)c2c1S(=O)(=O)c1ccccc1-2` was tested, and the T/C [8] was 91 % of control, the T/C [9] was 89 % of control and the T/C [10] was 88 % of control.

With `COCC(=O)c1ccc(C#N)cc1` the T/C [11] was 100 % of control, the T/C [12] was 100 % of control and the T/C [13] was 100 % of control.

`C/C=C(\C)C(=O)N/N=C/c1cccnc1` was tested, and the T/C [15] was 103 % of control, the T/C [19] was 103 % of control and the T/C [20] was 103 % of control.

In the case of `[O-]/[N+]1=[N+](\[O-])c2ccccc2CCc2ccccc21`, the T/C [22] is reported as 100 % of control, the T/C [23] is reported as 102 % of control and the T/C [24] is reported as 105 % of control.

`CC(CN(C)C)OC(=O)C1(c2ccccc2)CCOc2ccccc21` (stereo unspecified) was tested, and the T/C [22] was 108 % of control, the T/C [23] was 108 % of control and the T/C [24] was 109 % of control.

In the case of `OC1C=C(c2ccccc2)C(O)(c2ccccc2)C1` (stereo unspecified), the T/C [16] is reported as 100 % of control, the T/C [17] is reported as 100 % of control and the T/C [18] is reported as 92 % of control.
